{"source": "paper PMC7920280", "about": "“The Multi-Targeting Ligand ST-2223 with Histamine H3 Receptor and Dopamine D2/D3 Receptor Antagonist Properties Mitigates Autism-Like Repetitive Behaviors and Brain Oxidative Stress in Mice” (International Journal of Molecular Sciences, 2021)", "key": {"[1]": {"system": "mice with valproic acid (VPA)-induced ASD", "conditions": "cited from earlier work"}, "BTBR and B6 mice [2]": {"system": "BTBR and B6 mice", "assay": "Spontaneous alternation behavior (SAB), Y maze", "assay_type": "in vivo", "conditions": "BTBR mice; RAM 10 mg/kg i.p. co-administered with ST-2223 5 mg/kg", "description": "(§1) The drugs tested included ST-2223 [N-(4-(4-(2-methoxyphenyl)piperazin-1-yl)butyl)-6-(3-(piperidin-1-yl)propoxy)-2-naphthamide] that was designed and synthesized in the Institute of Pharmaceutical and Medicinal Chemistry, Heinrich Heine University Düsseldorf, Germany, and in accordance with previously described methodologies (Supplementary Materials). Aripiprazole (ARP) (1 mg/kg, i.p.) and memantine (MEM, 5 mg/kg, i.p.), as reference drugs, were purchased from Sigma-Aldrich (St. Louis, MO, USA). The CNS-penetrant H3R agonist (R)-α-methylhistamine (RAM, 10 mg/kg, i.p.) was purchased from Sigma-Aldrich, St. Louis, MO, USA. T. Protease and the phosphatase inhibitor cocktail were procured from Thermo Scientific, USA. The assay kit for reduced glutathione (GSH) was obtained from Sigma-Aldrich (St. Louis, MO, USA). The lipid peroxidation assay kit for estimation of malondialdehyde (MDA) was purchased from North West Life Science (Vancouver, WA, USA). The assay kits for superoxide dismutase (SOD) and catalase (CAT) were purchased from Cayman Chemical (Ann Arbor, MI, USA). The drugs were prepared daily using 1% dimethyl sulfoxide (DMSO) in 0.9% saline, for intraperitoneal (i.p.) administration at a volume of 10 mL/kg of body weight. Vehicle treatment consisted of 1% DMSO in 0.9% normal saline. All drugs were i.p. administered 30 min before the behavioral test. The doses of these drugs were chosen based on previous reports. Neurobehavioral assessment was performed blindly with respect to experimental group and drug administration.\nThe SAB test is based on the exploratory strategy of rodents to explore a new environment. In examining repetitive behaviors, the Y maze test took advantage of the rodents’ natural tendency to spontaneously alternate or choose a different arm of the maze instead of the one they visited on their previous entry (i.e., least recently visited arm). A decrease in the percentage alternation can also be attributed to same arm repeated visits. Spontaneous alternation behavior was measured on a Y maze apparatus, as previously described, with slight modifications. The Y maze composed of three arms (30 cm × 6 cm × 15 cm), where the arms were labeled with letters: A, B, or C. The test mouse was placed in the center of the maze and was allowed to freely explore the maze for 8 min. The number of entries into each arm and the total number of entries were recorded by the observer. A spontaneous alternation was defined as successive entry into three arms on an overlapping triplet set. Percentage spontaneous alternation was calculated as the number of spontaneous alternations (actual alternations) over the total number of entries (possible alternations). Two arm entries were subtracted from the denominator because an alternation required at least 3 entries. The apparatus was cleaned with 70% alcohol solution after each mouse was tested. (1) Percentage spontaneous alternations=Total alternations/(Total arm entries − 2) ×100"}, "BTBR and B6 mice [3]": {"system": "BTBR and B6 mice", "assay": "Open field test (OFT): locomotor activity and anxiety levels", "assay_type": "in vivo", "conditions": "BTBR mice", "description": "as §1\nThe open field test (OFT) systematically evaluates exploration behaviors executed in a novel open field (considered as a novel environment), as an independent control for the effects of the drugs on physical activity that could confound the interpretation of the results from the self-grooming, anxiety and spontaneous alternation. Mice were allowed to freely explore an open-field arena (45 × 45 × 30 cm), to assess general locomotor activity, and anxiety-related behaviors. The center arena was defined as the central 23 × 23 cm area. Mice were given 5 min to habituate in the center area of the arena before the recording started for the actual behavioral assessments. Recording lasted for 10 min using charge-coupled device (CCD) camera-assisted motion tracking apparatus and software (EthoVision 3.1, Noldus Information Technology, The Netherlands), and the total distance moved in the whole arena, time spent in the center and periphery were recorded. Test chambers were cleaned with 70% ethanol after each trial and were allowed to dry until ethanol evaporation and odor dissipation had occurred. When interpreting the results observed in this assessment, less time spent in the center was considered as an indicator for high levels of anxiety-like behaviors and total distance travelled signified the overall locomotor activity of tested animals."}, "BTBR and B6 mice [4]": {"system": "BTBR and B6 mice", "assay": "Marble burying task (MBT)", "assay_type": "in vivo", "conditions": "BTBR mice", "description": "as §1\nThe MBT is used for testing repetitive and compulsive behaviors as it accurately reflects repetitive digging behavior [95, 96]. The test was performed as described previously, with slight modifications. Briefly, cages (26 cm × 48 cm × 20 cm) were filled with fresh, unscented mouse bedding material to a depth of 5 cm, on top of which 20 marbles were placed in 4 rows of 5 marbles each (15 mm diameter). Before placing the marbles, the bedding surface was leveled by placing another cage of the same size onto the surface of the bedding and then each mouse was individually added for 10 min habituation. After habituation, the mouse was removed, and the marbles were carefully overlaid. The same mouse was then returned to its designated test cage and allowed to explore for 30 min. The total number of marbles buried (>50% marble covered by the bedding material) was determined at the end of the session."}, "BTBR and B6 mice [5]": {"system": "BTBR and B6 mice", "assay": "Self-grooming paradigm (SGP)", "assay_type": "in vivo", "conditions": "BTBR mice; RAM 10 mg/kg i.p. co-administered with ST-2223 5 mg/kg", "description": "as §1\nIn the SGP test, mice were scored for spontaneous grooming behaviors. […] To measure SGP, each mouse was placed individually in a standard clear plastic cage (28 cm wide × 17 cm long × 12 cm high) for a total of 20 min. Mice were allowed to freely explore the cage for the entire test, the first 10 min served as a habituation period. After 10 min habituation, each mouse was scored with a stopwatch for 10 min for cumulative time spent grooming all body regions. Grooming behavior included head washing, body grooming, genital/tail grooming and paw and leg licking. The observer sat approximately 1 m from the test cage during the second 10 min of testing."}, "mice sensitized with PCP": {"system": "mice sensitized with PCP", "conditions": "acute low dose of PCP in mice sensitized by repeated high-dose PCP; cited from earlier work"}, "[6]": {"system": "oxidative stress markers (e.g., MDA and GSH)", "parameters": "method as in PMID 27833522, PMID 27089413, PMID 22331799", "conditions": "amphetamine- or dizocilpine-augmented oxidative stress, mouse model of schizophrenia; cited from earlier work"}, "[7]": {"conditions": "RAM 10 mg/kg i.p. co-administered with ST-2223 5 mg/kg"}}}
{"compound": "CCC(C)(C)c1ccc(OCCCN2CCCCC2)cc1", "note": "[DL77]", "values": [{"measurement": "percentage of marbles buried", "setting": "[1]; adult male Tuck-Ordinary mice with VPA-induced ASD features, subchronic 5, 10, 15 mg/kg, i.p.", "result": "significant and dose-dependent"}]}
{"compound": "C[C@@H](N)Cc1c[nH]cn1", "note": "[RAM, (R)-α-methylhistamine]", "values": [{"measurement": "effect of co-administration on the ST-2223 (5 mg)-induced enhancement in alternation", "setting": "BTBR and B6 mice [2]", "result": "entirely reversed"}, {"measurement": "time spent in the center (OFT) vs saline-treated BTBR mice, given alone", "setting": "BTBR and B6 mice [3]; RAM 10 mg/kg i.p. alone", "result": "did not induce any alternation"}, {"measurement": "effect of co-administration on the ST-2223 (5 mg)-induced increase in time spent in the center (OFT)", "setting": "BTBR and B6 mice [3]; [7]", "result": "not reversed"}, {"measurement": "marble burying behavior vs saline-treated BTBR mice, given alone", "setting": "BTBR and B6 mice [4]; RAM 10 mg/kg i.p. alone", "result": "did not alter"}, {"measurement": "effect of co-administration on the ST-2223 (5 mg)-stimulated decrease in percentage of buried marbles", "setting": "BTBR and B6 mice [4]; [7]", "result": "reversed"}, {"measurement": "effect of co-administration on the ST-2223 (5 mg)-induced decrease in time spent self-grooming", "setting": "BTBR and B6 mice [5]", "result": "nullified"}]}
{"compound": "CN1CCCC1CCNS(=O)(=O)c1ccc2c(c1)CN(CC1CCCCC1)CC2", "note": "(centres unmarked) [SAR110894]", "values": [{"measurement": "deficit in working memory in the Y maze test", "setting": "mice sensitized with PCP", "result": "reversed"}]}
{"compound": "O=C(c1ccc(OCCCc2cnc[nH]2)cc1)C1CC1", "note": "[ciproxifan]", "values": [{"measurement": "oxidative stress markers (e.g., MDA and GSH)", "setting": "[6]", "result": "mitigated"}, {"measurement": "repetitive behavior in the MBT", "setting": "[1]; mice with VPA-induced ASD", "result": "reduced repetitive behavior"}]}
{"compound": "NC(=NCc1ccc(Cl)cc1)SCCCc1cnc[nH]1", "note": "[clobenpropit]", "values": [{"measurement": "oxidative stress markers (e.g., MDA and GSH)", "setting": "[6]", "result": "mitigated"}]}
